Source: patent US20250326738A1, “MALT1 Modulators and Uses Thereof” (Rarefied Biosciences, Inc., priority 2022, published 2025)

Tests used:
full length MALT1 = target: T1, full length MALT1 (Homo sapiens, UniProt Q9UDY8); assay: MALT1 biochemical assay (fluorogenic peptide substrate cleavage); settings: full length MALT1, 15 nM enzyme, 30 μM peptide substrate, 30 min pre-incubation, 60 min reaction; mean if tested more than once
T1 construct: measuring enzymatic activity of full length MALT1 at varying concentrations of compound
T1 sequence (Q9UDY8 1-824): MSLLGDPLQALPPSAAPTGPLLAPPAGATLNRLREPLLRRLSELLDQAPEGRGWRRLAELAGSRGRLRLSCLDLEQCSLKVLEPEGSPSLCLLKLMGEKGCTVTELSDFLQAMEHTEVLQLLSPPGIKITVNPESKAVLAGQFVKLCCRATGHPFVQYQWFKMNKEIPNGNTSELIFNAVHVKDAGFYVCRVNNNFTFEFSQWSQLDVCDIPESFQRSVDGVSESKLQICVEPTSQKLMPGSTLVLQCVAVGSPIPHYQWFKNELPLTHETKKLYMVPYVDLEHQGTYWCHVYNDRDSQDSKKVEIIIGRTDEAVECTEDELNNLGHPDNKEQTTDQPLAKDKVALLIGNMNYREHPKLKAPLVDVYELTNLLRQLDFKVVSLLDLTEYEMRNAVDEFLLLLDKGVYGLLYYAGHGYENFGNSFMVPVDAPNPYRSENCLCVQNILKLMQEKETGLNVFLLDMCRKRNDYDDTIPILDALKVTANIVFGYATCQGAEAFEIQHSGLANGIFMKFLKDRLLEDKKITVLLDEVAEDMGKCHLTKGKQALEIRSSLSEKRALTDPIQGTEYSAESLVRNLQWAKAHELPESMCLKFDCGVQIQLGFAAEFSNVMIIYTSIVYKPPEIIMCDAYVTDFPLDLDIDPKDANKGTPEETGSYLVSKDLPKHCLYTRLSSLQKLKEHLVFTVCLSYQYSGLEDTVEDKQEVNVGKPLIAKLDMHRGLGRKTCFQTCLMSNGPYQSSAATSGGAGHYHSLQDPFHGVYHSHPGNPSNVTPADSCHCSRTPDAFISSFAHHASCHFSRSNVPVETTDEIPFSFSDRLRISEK
Description: Inhibitor potency was evaluated by measuring enzymatic activity of full length MALT1 at varying concentrations of compound. The enzymatic assay consists of a single substrate reaction that monitors the release of a fluorescent dye upon cleavage of the peptide substrate. […] The assay buffer consists of 50 mM Hepes, pH 7.5, 0.8 M sodium citrate, 1 mM DTT, 0.004% tween-20, and 0.005% bovine serum albumin (BSA). […] The reaction was quenched after 60 minutes with the addition of iodoacetate at a final concentration of 10 mM. Total fluorescence was measured using an Envision (PerkinElmer) with fluorescence excitation at 485 nm and emission at 520 nm.
The reaction was initiated with the addition of 10 μL of peptide substrate. […] IC50 values were calculated by fitting the concentration-response curves to a four-parameter logistic equation in GraphPad Prism.
“N/A” indicates not tested.

Jurkat IL-2 = Jurkat IL-2 assay (IL-2 inhibition by ELISA after anti-CD3/28/2 stimulation); type: cell-based; settings: Homo sapiens; Jurkat clone E6.1, IL-2 in supernatant, 30 min pre-incubation, anti-CD3/28/2 stimulation 24 hours; mean if tested more than once
Description: Inhibition was determined in a cell-based assay using Jurkat (ATCC, clone E6.1), an immortalized T-cell line, exposed to a dose response of compound and assessed for viability, and IL-2 inhibition by ELISA. Cells were cultured in RPMI/10% FBS (Invitrogen 11875093, Atlanta Biologicals S12450H), maintained below 3E6/mL and only used in assays while below passage 25. Compounds were stamped by ECHO onto 384w plates (PerkinElmer Culturplate, 6007680). The cells were plated in fresh media on top of compound and incubated for 30 minutes before stimulation with soluble anti-CD3/28/2 (Stemcell, 10970) for 24 hours. Supernatant was collected and assessed for IL-2 (MSD, 384w, L21SA-1). To assess viability of cells treated with compound, cells were lysed with CTG reagent (Promega, G7570), and measured by luminometer. […] IC50s calculated using 4-parameter fit in GraphPad Prism.
“N/A” indicates not tested. For a compound that was tested in more than one experiment, the result shown represents the mean value.

| SMILES | IC50 (full length MALT1) [nM] | IC50 (Jurkat IL-2) [nM] |
| --- | --- | --- |
| CN(C(=O)C1CCS(=O)(=O)CC1)[C@@H](c1ccc(Nc2cnn(-c3ccncn3)c2C(F)(F)F)cc1)C(F)(F)F [Compound 1.20] | < 100 | < 100 |
| CN(C(=O)C1CCS(=O)(=O)CC1)[C@@H](c1ccc(Nc2cnn(-c3cccnn3)c2C(F)(F)F)cc1)C(F)(F)F [Compound 1.21] | < 100 | < 100 |
| CN(C(=O)C1CCS(=O)(=O)CC1)[C@@H](c1ccc(Nc2cnn(-c3ccnnc3)c2C(F)(F)F)cc1)C(F)(F)F [Compound 1.22] | < 100 | 100 to 1000 |
| COC(C)c1c(Nc2ccc([C@H](N(C)C(=O)C3CCS(=O)(=O)CC3)C(F)(F)F)cc2)cnn1-c1cccnc1 (some centres unmarked) [Compound 1.23] | 100 to 1000 | 100 to 1000 |
| CC(O)c1c(Nc2ccc([C@H](N(C)C(=O)C3CCS(=O)(=O)CC3)C(F)(F)F)cc2)cnn1-c1cccnc1 (some centres unmarked) [Compound 1.24] | < 100 | 100 to 1000 |
| CC(=O)N1CCC(C(=O)N(C)[C@@H](c2ccc(Nc3cnn(-c4ccccc4)c3C(F)(F)F)cc2)C(F)(F)F)CC1 [Compound 1.25] | 100 to 1000 | < 100 |
| CC(=O)N1CCC(C(=O)N(C)[C@@H](c2ccc(Nc3cnn(-c4ccccc4)c3C(C)C)cc2)C(F)(F)F)CC1 [Compound 1.26] | 100 to 1000 | 100 to 1000 |
| CC(=O)N1CCC(C(=O)N(C)[C@@H](c2ccc(Nc3cnn(-c4cccnc4)c3C(F)(F)F)cc2)C(F)(F)F)CC1 [Compound 1.27] | < 100 | < 100 |
| CC(=O)N1CCC(C(=O)N(C)[C@@H](c2ccc(Nc3cnn(-c4cccc(C#N)c4)c3C(F)(F)F)cc2)C(F)(F)F)CC1 [Compound 1.28] | < 100 | < 100 |
| CC(=O)N1CCC(C(=O)N(C)[C@@H](c2ccc(Nc3cnn(-c4ccccn4)c3C(F)(F)F)cc2)C(F)(F)F)CC1 [Compound 1.29] | 100 to 1000 | < 100 |
| CO[C@@H](C)c1c(Nc2ccc([C@H](N(C)C(=O)C3CCN(C(C)=O)CC3)C(F)(F)F)cc2)cnn1-c1ccccc1 [Compound 1.31] | 100 to 1000 | 100 to 1000 |
| CO[C@@H](C)c1c(Nc2ccc([C@H](N(C)C(=O)C3CCN(C(C)=O)CC3)C(F)(F)F)cc2)cnn1-c1ccccn1 [Compound 1.32] | < 100 | 100 to 1000 |
| CO[C@@H](C)c1c(Nc2ccc([C@H](N(C)C(=O)C3CCN(C(C)=O)CC3)C(F)(F)F)cc2)cnn1-c1ccncc1 [Compound 1.33] | 100 to 1000 | 100 to 1000 |
| CO[C@@H](C)c1c(Nc2ccc([C@H](N(C)C(=O)C3CCN(C(C)=O)CC3)C(F)(F)F)cc2)cnn1-c1cccnc1 [Compound 1.34] | 100 to 1000 | 100 to 1000 |
| CC(=O)N1CC(C(=O)N(C)[C@@H](c2ccc(Nc3cnn(-c4cccc(C#N)c4)c3C(F)(F)F)cc2)C(F)(F)F)C1 [Compound 1.35] | 100 to 1000 | < 100 |
| CC(=O)N1CC(C(=O)N(C)[C@@H](c2ccc(Nc3cnn(-c4cccnc4)c3C(F)(F)F)cc2)C(F)(F)F)C1 [Compound 1.36] | < 100 | < 100 |
| CC(=O)N1CC(C(=O)N(C)[C@@H](c2ccc(Nc3cnn(-c4ccccn4)c3C(F)(F)F)cc2)C(F)(F)F)C1 [Compound 1.37] | < 100 | < 100 |

| SMILES | IC50 (full length MALT1) [nM] | IC50 (Jurkat IL-2) [nM] |
| --- | --- | --- |
| CO[C@@H](C)c1c(Nc2ccc([C@H](N(C)C(=O)C3CN(C(C)=O)C3)C(F)(F)F)cc2)cnn1-c1ccccc1 [Compound 1.38] | 100 to 1000 | 100 to 1000 |
| CC(=O)N1CC(C(=O)N(C)[C@@H](c2ccc(Nc3cnn(-c4cccc(C#N)c4)c3C3CC3)cc2)C(F)(F)F)C1 [Compound 1.39] | 100 to 1000 | 100 to 1000 |
| CC(=O)N1CC(C(=O)N(C)[C@@H](c2ccc(Nc3cnn(-c4ccccn4)c3C3CC3)cc2)C(F)(F)F)C1 [Compound 1.40] | < 100 | 100 to 1000 |
| CN(C(=O)[C@H]1CC[C@H](C(=O)O)CC1)[C@@H](c1ccc(Nc2cnn(-c3ccccc3)c2C(F)(F)F)cc1)C(F)(F)F [Compound 2.1, (1S,4r)-4-(methyl((S)-2,2,2-trifluoro-1-(4-((1-phenyl-5-(trifluoromethyl)-1H-pyrazol-4-yl)amino)phenyl)ethyl)carbamoyl)cyclohexane-1-carboxylic acid] | < 100 | < 100 |
| CN(C(=O)[C@H]1CC[C@H](C(=O)O)CC1)[C@@H](c1ccc(Nc2cnn(-c3ccncc3)c2C(F)(F)F)cc1)C(F)(F)F [Compound 2.2] | 100 to 1000 | 100 to 1000 |
| CN(C(=O)[C@H]1CC[C@H](C(=O)O)CC1)[C@@H](c1ccc(Nc2cnn(-c3cccnc3)c2C(F)(F)F)cc1)C(F)(F)F [Compound 2.3] | 100 to 1000 | < 100 |
| CN(C(=O)[C@H]1CC[C@H](C(=O)O)CC1)[C@@H](c1ccc(Nc2cnn(-c3ccccn3)c2C(F)(F)F)cc1)C(F)(F)F [Compound 2.4] | < 100 | < 100 |
| CO[C@@H](C)c1c(Nc2ccc([C@H](N(C)C(=O)[C@H]3CC[C@H](C(=O)O)CC3)C(F)(F)F)cc2)cnn1-c1ccccn1 [Compound 2.5] | < 100 | 100 to 1000 |
| CO[C@@H](C)c1c(Nc2ccc([C@H](N(C)C(=O)[C@H]3CC[C@H](C(=O)O)CC3)C(F)(F)F)cc2)cnn1-c1ccccc1 [Compound 2.6] | 100 to 1000 | 100 to 1000 |
| CO[C@@H](C)c1c(Nc2ccc([C@H](N(C)C(=O)[C@H]3CC[C@H](C(=O)O)CC3)C(F)(F)F)cc2)cnn1-c1ccncc1 [Compound 2.7] | 100 to 1000 | > 1000 |
| CO[C@@H](C)c1c(Nc2ccc([C@H](N(C)C(=O)[C@H]3CC[C@H](C(=O)O)CC3)C(F)(F)F)cc2)cnn1-c1cccnc1 [Compound 2.8] | 100 to 1000 | 100 to 1000 |
| CN(C(=O)[C@H]1CC[C@H](C(=O)O)CC1)[C@@H](c1ccc(Nc2cnn(-c3cccnn3)c2C(F)(F)F)cc1)C(F)(F)F [Compound 2.9] | < 100 | < 100 |
| CO[C@@H](C)c1c(Nc2ccc([C@H](N(C)C(=O)[C@H]3CC[C@H](C(=O)O)CC3)C(F)(F)F)cc2)cnn1-c1cccc(C#N)c1 [Compound 2.10] | < 100 | 100 to 1000 |
| CN(C(=O)[C@H]1C[C@H](C(=O)O)C1)[C@@H](c1ccc(Nc2cnn(-c3ccccn3)c2C(F)(F)F)cc1)C(F)(F)F [Compound 2.11, (1r,3r)-3-{methyl[(1S)-2,2,2-trifluoro-1-(4-{[1-(pyridin-2-yl)-5-(trifluoromethyl)-1H-pyrazol-4-yl]amino}phenyl)ethyl]carbamoyl}cyclobutane-1-carboxylic Acid Amine] | < 100 | < 100 |
| CN(C(=O)[C@H]1C[C@@H](C(=O)O)C1)[C@@H](c1ccc(Nc2cnn(-c3ccccn3)c2C(F)(F)F)cc1)C(F)(F)F [Compound 2.12, (1s,3s)-3-{methyl[(1S)-2,2,2-trifluoro-1-(4-{[1-(pyridin-2-yl)-5-(trifluoromethyl)-1H-pyrazol-4-yl]amino}phenyl)ethyl]carbamoyl}cyclobutane-1-carboxylic Acid Amine] | < 100 | 100 to 1000 |
| CN(C(=O)[C@H]1C[C@H](C(=O)O)C1)[C@@H](c1ccc(Nc2cnn(-c3ccccc3)c2C(F)(F)F)cc1)C(F)(F)F [Compound 2.13] | < 100 | < 100 |
| CN(C(=O)[C@H]1C[C@@H](C(=O)O)C1)[C@@H](c1ccc(Nc2cnn(-c3ccccc3)c2C(F)(F)F)cc1)C(F)(F)F [Compound 2.14] | < 100 | 100 to 1000 |
